The values below come from patent publication US5583127A, “17-iminomethylalkenyl-5 β, 14 β-androstane and 17-iminoalkyl-5 β, 14 β-androstane derivatives active on the cardiovascular system, and pharmaceutical compositions containing same” (Sigma-Tau Industrie Farmaceutiche Riunite S.p.A., priority 1993, dated 1996).

Assay [1] addresses purified Na^+,K^+ -ATPase (Homo sapiens, UniProt P05023). In words: inhibition of the activity of the purified Na+,K+-ATPase (% hydrolysis of 32P-ATP). In kind it is biochemical. Particulars: for IC50: read-out: Inhibitory Activity log IC50 (converted).
The target of assay [2] is Na^+, K^+ -ATPase receptor (Homo sapiens, UniProt P05023). Nature of the assay: displacement of the specific 3H-ouabain binding from the Na+,K+-ATPase receptor. Particulars: for IC50: displacement of specific 3H-ouabain binding, read-out: Binding ^3 H-Ouab. Displacement log IC50 (converted).

SMILES strings stand for the structures. pIC50: −log10 of the molar value. Read-outs that look alike come from different tables or passages of the source.

What is called IC50 is the concentration needed to halve the response being measured. On to `C[C@]12CC[C@H](O)C[C@H]1CC[C@@H]1[C@@H]2CC[C@]2(C)[C@@H](/C=C/C=N/NC3=NCCCN3)CC[C@]12O` [Comp. I-ag, (E,E)-17β-[3-(1,4,5,6-Tetrahydro-2-pyrimidinyl)hydrazono-1-propenyl]-5β-androstane-3β,14β-diol], for which the IC50 in assay [1] (purified Na+,K+-ATPase) was 1580 nM; in assay [2], 39.8 nM. The matching figures for `CN(C)CCON=CC[C@@]1(O)CC[C@]2(O)[C@@H]3CC[C@@H]4C[C@@H](O)CC[C@]4(C)[C@H]3CC[C@]12C` (mixture of isomers) [Comp. I-bt, (EZ)-17β-[2-(2-Dimethylaminoethoxyimino)ethyl]-5β-androstane-3β,14β,17α-triol]: 10000 nM and 794 nM. The matching figures for `C[C@]12CC[C@H](O)C[C@H]1CC[C@@H]1[C@@H]2CC[C@]2(C)[C@@H](CC=NNC(=N)N)CC[C@]12O` (mixture of isomers) [Comp. I-bc, (EZ)-17β-(2-Guaidinoimino)ethyl-5β-androstane-3β,14β-diol]: 398 nM and 79.4 nM. `C[C@]12CC[C@H](O)C[C@H]1CC[C@@H]1[C@@H]2CC[C@]2(C)[C@@H](/C=C/C=C/C=N/N=C(N)N)CC[C@]12O` [Comp. I-au]: the IC50 in assay [2] is 501 nM.

What is called pIC50 is −log10 of the IC50, conventionally taken in molar units. Read a high pIC50 as a low IC50. As for `CN1CCN=C1N/N=C/C=C/[C@H]1CC[C@]2(O)[C@@H]3CC[C@@H]4C[C@@H](O)CC[C@]4(C)[C@H]3CC[C@]12C` [Comp. I-ae, (E,E)-17β-[3-(1-Methyl-2-imidazolin-2-yl)hydrazono-1-propenyl]-5β-androstane-3β,14β-diol], the pIC50 was 5.60 in assay [1] and 6.80 in assay [2]. As to `C[C@]12CC[C@H](O)C[C@H]1CC[C@@H]1[C@@H]2CC[C@]2(C)[C@@H](/C=C/C=N/NC3=NCCN3)CC[C@]12O` [Comp. I-ac, (E,E)-17β-[3-(2-Imidazolin-2-yl)hydrazono-1-propenyl]-5β-androstane-3β,14β-diol], the pIC50 in assay [2] is 7.30. Consider `C[C@]12CC[C@H](O)C[C@H]1CC[C@@H]1[C@@H]2CC[C@]2(C)[C@@H](/C=C/C=N/OCCN)CC[C@]12O` [Comp. I-ao, (E,E)-17β-[3-(2-Aminoethoxyimino)-1-propenyl]-5β-androstane-3β,14β-diol], for which the IC50 in assay [1] (purified Na+,K+-ATPase) is 20 nM; in assay [2], 15.8 nM. As to `C[C@]12CC[C@H](O)C[C@H]1CC[C@@H]1[C@@H]2CC[C@]2(C)[C@@H](/C=C/C=C/C=N/NC3=NCCN3)CC[C@]12O` [Comp. I-av, (E,E,E)-17β-[5-(2-Imidazolin-2-yl)hydrazono-1,3-pentadienyl]-5β-androstane-3β,14β-diol], the values for the IC50 in assay [1] (purified Na+,K+-ATPase) and in assay [2] were 10000 nM and 1000 nM, respectively. On to `CN(C)CCON=C/C=C/[C@H]1CC[C@]2(O)[C@@H]3CC[C@@H]4C[C@@H](OCCN5CCCC5)CC[C@]4(C)[C@H]3CC[C@]12C` (mixture of isomers) [Comp. I-by, 3β-[2-(1-Pyrrolidinyl)ethoxy]-17β-[3-(EZ)-(2-dimethylamino-ethoxyimino)-1-(E)-propenyl]-5β-androstane-14β-ol], for which the IC50 in assay [1] (purified Na+,K+-ATPase) was 31.6 nM; in assay [2] it was 20 nM. With `CN(C)CCO/N=C/C=C/[C@H]1CC[C@]2(O)[C@@H]3CC[C@@H]4C[C@H](O)CC[C@]4(C)[C@H]3CC[C@]12C` [Comp. I-ck, (E,E)-17β-[3-(2-Dimethylaminoethoxyimino)-1-propenyl]-5β-androstane-3α,14β-diol], the IC50 in assay [1] (purified Na+,K+-ATPase) was 63.1 nM. In addition, the negative logarithm of the IC50 (pIC50) in assay [2] was 7.30.

Regarding `C[C@]12CC[C@H](O)C[C@H]1CC[C@@H]1[C@@H]2CC[C@]2(C)[C@@H](/C=C/C=N/NC(N)=O)CC[C@]12O` [Comp. I-ak, (E,E)-17β-(3-Semicarbazono)-1-propenyl-5β-androstane-3β,14β-diol], the results for the 50% inhibitory concentration (IC50) in assay [1] and in assay [2] were 25100 nM and 2000 nM, respectively.

`C[C@]12CC[C@H](O)C[C@H]1CC[C@@H]1[C@@H]2CC[C@]2(C)[C@@H](/C=C/C=N/NC(=N)Nc3ccccc3)CC[C@]12O` [Comp. I-aj, (E,E)-17β-[3-(3-Phenyl)guanidinoimino-1-propenyl]-5β-androstane-3β,14β-diol]: the values for the IC50 in assay [1] and in assay [2] were 10000 nM and 1000 nM, respectively. Consider `C[C@]12CC[C@H](O)C[C@H]1CC[C@@H]1[C@@H]2CC[C@]2(C)[C@@H](CC=NNC3=NCCN3)CC[C@]12O` (mixture of isomers) [Comp. I-bd, (EZ)-17β-[2-(2-Imidazolin-2-yl)hydrazonoethyl]-5β-androstane-3β,14β-diol], for which the IC50 in assay [1] (purified Na+,K+-ATPase) is 631 nM; in assay [2], 126 nM. With `C[C@]12CC[C@H](O)C[C@H]1CC[C@@H]1[C@@H]2CC[C@]2(C)[C@@H](/C=C/C=N/OCCCN)CC[C@]12O` [Comp. I-ap, (E,E)-17β-[3-(3-Aminopropoxyimino)-1-propenyl]-5β-androstane-3β,14β-diol], the IC50 in assay [1] (purified Na+,K+-ATPase) is 100 nM. For the same compound, the pIC50 in assay [2] was 7.30. As for `C[C@]12CC[C@H](O)C[C@H]1CC[C@@H]1[C@@H]2CC[C@]2(C)[C@@H](/C=C/C=N/NC(N)=S)CC[C@]12O` [Comp. I-al, (E,E)-17β-(3-Thiosemicarbazono-1-propenyl)-5β-androstane-3β,14β-diol], the IC50 in assay [1] (purified Na+,K+-ATPase) is 39800 nM; in assay [2] it was 3980 nM.

Compound `C[C@]12CC[C@H](O)C[C@H]1CC[C@@H]1[C@@H]2CC[C@]2(C)[C@@H](/C=C/C=N\NC3=NCCN3)CC[C@]12O` [Comp. I-ad, 17β-[3-(Z)-(2-Imidazolin-2-yl)hydrazono-1-(E)-propenyl]-5β-androstane-3β,14β-diol] gave a negative-log IC50 (pIC50) in assay [2] of 6.20. Regarding `CN(C)CCON=CC[C@H]1CC[C@]2(O)[C@@H]3CC[C@@H]4C[C@@H](OCCN5CCCC5)CC[C@]4(C)[C@H]3CC[C@]12C` (mixture of isomers) [Comp. I-cg, 3β-[2-(1-Pyrrolidinyl)ethoxy]-17β-[3-(EZ)-(2-dimethylamino-ethoxyimino)ethyl]-5β-androstane-14β-ol], the IC50 is 100 nM in assay [1] (purified Na+,K+-ATPase) and 31.6 nM in assay [2]. Regarding `C[C@]12CC[C@@H](O)C[C@H]1CC[C@@H]1[C@@H]2CC[C@]2(C)[C@@H](/C=C/C=N/NC(=N)N)CC[C@]12O` [Comp. I-ej, (E,E)-17β-(3-Guanidinoimino-1-propenyl)-5β-androstane-3α,14β-diol], the IC50 in assay [1] (purified Na+,K+-ATPase) was 316 nM. The compound also showed a pIC50 in assay [2] of 7.30.

On to `CO/N=C/C=C/[C@H]1CC[C@]2(O)[C@@H]3CC[C@@H]4C[C@@H](O)CC[C@]4(C)[C@H]3CC[C@]12C` [Comp. I-an, (E,E)-17β-(3-Methoxyimino-1-propenyl)-5β-androstane-3β,14β-diol], for which the IC50 in assay [1] (purified Na+,K+-ATPase) was 20000 nM; in assay [2], 2000 nM. For `CN(C)CCON=CCC[C@H]1CC[C@]2(O)[C@@H]3CC[C@@H]4C[C@@H](O)CC[C@]4(C)[C@H]3CC[C@]12C` (mixture of isomers) [Comp. I-bn, (EZ)-17β-[3-(2-Dimethylaminoethoxyimino)propyl]-5β-androstane-3β,14β-diol], the IC50 in assay [1] (purified Na+,K+-ATPase) was 100 nM; in assay [2], 25.1 nM. The matching figures for `C[C@]12CC[C@H](O)C[C@H]1CC[C@@H]1[C@@H]2CC[C@]2(C)[C@@H](/C=C/C=NOCCCNC(=N)N)CC[C@]12O` (mixture of isomers) [Comp. I-at, 17β-[3-(EZ)-(3-Guanidinopropoxyimino)-1-(E)-propenyl]-5β-androstane-3β,14β-diol]: 316 nM and 158 nM. Regarding `C[C@]12CC[C@H](O)C[C@H]1CC[C@@H]1[C@@H]2CC[C@]2(C)[C@@H](CCC=NNC3=NCCN3)CC[C@]12O` (mixture of isomers) [Comp. I-bj, (EZ)-17β-[3-(2-Imidazolin-2-yl)hydrazonopropyl]-5β-androstane-3β,14β-diol], the results for the IC50 in assay [1] and in assay [2] were 3160 nM and 251 nM, respectively. Turning to `C[C@]12CC[C@H](OCCN)C[C@H]1CC[C@@H]1[C@@H]2CC[C@]2(C)[C@@H](/C=C/C=NNC(=N)N)CC[C@]12O` (mixture of isomers) [Comp. I-cb], the figures for the IC50 in assay [1] (purified Na+,K+-ATPase) and in assay [2] were 100 nM and 20 nM, respectively. Take `CN(C)CCNC(=N)N/N=C/C=C/[C@H]1CC[C@]2(O)[C@@H]3CC[C@@H]4C[C@@H](O)CC[C@]4(C)[C@H]3CC[C@]12C` [Comp. I-ai, (E,E)-17β-{3-[3-(2-Dimethylaminoethyl)guanidinoimino]-1-propenyl}-5β-androstane-3β,14β-diol]: the IC50 in assay [1] was 3160 nM; in assay [2], 251 nM.

As to `CN(C)CCON=C/C=C/[C@H]1CC[C@]2(O)[C@@H]3CC[C@@H]4C[C@@H](OCCCN)CC[C@]4(C)[C@H]3CC[C@]12C` (mixture of isomers) [Comp. 1-ce, 3β-(3-Aminopropoxy)-17β-[3-(EZ)-(2-dimethylaminoethoxy-imino)-1-(E)-propenyl]-5β-androstane-14β-ol], the figures for the 50% inhibitory concentration (IC50) in assay [1] (purified Na+,K+-ATPase) and in assay [2] were 20 nM and 15.8 nM, respectively.

`CN(C)CCON=CC[C@H]1CC[C@]2(O)[C@@H]3CC[C@@H]4C[C@H](O)CC[C@]4(C)[C@H]3CC[C@]12C` (mixture of isomers) [Comp. I-cm, (EZ)-17β-[2-(2-Dimethylaminoethoxyimino)ethyl]-5β-androstane-3α,14β-diol]: the results for the IC50 in assay [1] and in assay [2] were 1000 nM and 100 nM, respectively. In the case of `CC(CO[C@H]1CC[C@@]2(C)[C@H](CC[C@@H]3[C@@H]2CC[C@]2(C)[C@@H](/C=C/C=NOCCN(C)C)CC[C@]32O)C1)N1CCCC1` (mixture of isomers) [Comp. I-ca, 3β-[2-(1-Pyrrolidinyl)propoxy]-17β-[3-(EZ)-(2-dimethylamino-ethoxyimino)-1-(E)-propenyl]-5β-androstane-14β-ol], the IC50 is 39.8 nM in assay [1] (purified Na+,K+-ATPase) and 31.6 nM in assay [2]. Regarding `C[C@]12CC[C@H](O)C[C@H]1CC[C@@H]1[C@@H]2CC[C@]2(C)[C@@H](/C=C/C=C/C=N/NC3=NCCCN3)CC[C@]12O` [Comp. I-aw, (E,E,E)-17β-[5-(1,4,5,6-Tetrahydro-2-pyrimidinyl)hydrazono-1,3-pentadienyl]-5β-androstane-3β,14β-diol], the IC50 in assay [1] is 15800 nM.
